These results are taken from ChEMBL document CHEMBL5113459 (Bioorg Med Chem Lett, 2022).

What all share (assay type): functional, cell-based
One assay has as its system DU-145. Nature of the assay: Antiproliferative activity against human AR-negative DU-145 cells assessed as cell growth inhibition incubated for 3 days by WST-1 assay. The note with it: DU-145, 72 h.
The next assay concerns LNCaP. Nature of the assay: Antiproliferative activity against human AR-positive LNCaP cells assessed as cell growth inhibition incubated for 3 days by WST-1 assay. To be noted: 72 h.
The next assay relates to CWR22R. Nature of the assay: Antiproliferative activity against human AR-positive 22Rv1 cells assessed as cell growth inhibition incubated for 3 days by WST-1 assay. The note with it: 22Rv1, 72 h.
The next assay concerns PC-3. As to the kind of experiment: Antiproliferative activity against human AR-negative PC-3 cells assessed as cell growth inhibition incubated for 3 days by WST-1 assay. To be noted: PC-3, 72 h. (In general: Formazan colour is commonly taken as a measure of viable cells.)

SMILES strings stand for the structures.

Consider `Cc1ncsc1-c1ccc(CNC(=O)[C@@H]2C[C@@H](O)CN2C(=O)[C@@H](NC(=O)COCCOCCOc2ccc(Cl)cc2C(=O)Nc2ccc([N+](=O)[O-])cc2Cl)C(C)(C)C)cc1`, for which the IC50 is greater than 10 µM with DU-145, 2.37 µM with LNCaP, 4.94 µM with CWR22R and 2.34 µM in the assay on PC-3.
As to `C#CCCOc1ccc(Cl)cc1C(=O)Nc1ccc([N+](=O)[O-])cc1Cl`, the IC50 in the assay with DU-145, in the assay on LNCaP, in the assay with CWR22R and in the assay on PC-3 was greater than 10 µM throughout.
On to `O=C(O)COCCOCCOc1ccc(Cl)cc1C(=O)Nc1ccc([N+](=O)[O-])cc1Cl`, for which the 50% inhibitory concentration (IC50) with DU-145, in the assay on LNCaP, in the assay with CWR22R and in the assay on PC-3 was greater than 10 µM in each case.
For the compound `CC(C)(C)OC(=O)COCCOCCN=[N+]=[N-]`, the IC50 with DU-145, in the assay with LNCaP, in the assay with CWR22R and in the assay on PC-3 was greater than 10 µM throughout.
For the compound `CC(C)(C)OC(=O)COCCOCCn1cc(CCOc2ccc(Cl)cc2C(=O)Nc2ccc([N+](=O)[O-])cc2Cl)nn1`, the IC50 in the assay with DU-145 was greater than 10 µM; in the assay with LNCaP it was 3.08 µM; in the assay on CWR22R, greater than 10 µM; with PC-3, greater than 10 µM.
Take `Cc1ncsc1-c1ccc(CNC(=O)[C@@H]2C[C@@H](O)CN2C(=O)[C@@H](NC(=O)COCCOCCn2cc(CCOc3ccc(Cl)cc3C(=O)Nc3ccc([N+](=O)[O-])cc3Cl)nn2)C(C)(C)C)cc1`: the half-maximal inhibitory concentration (IC50) is greater than 10 µM in the assay on DU-145, 1.04 µM with LNCaP, 6.88 µM in the assay with CWR22R and 2.79 µM in the assay on PC-3.
In the case of `O=C(O)COCCOCCn1cc(CCOc2ccc(Cl)cc2C(=O)Nc2ccc([N+](=O)[O-])cc2Cl)nn1`, the IC50 with DU-145, with LNCaP, in the assay with CWR22R and with PC-3 was greater than 10 µM each time.
On to `O=C(Nc1ccc([N+](=O)[O-])cc1Cl)c1cc(Cl)ccc1O` [NICLOSAMIDE], for which the IC50 in the assay on DU-145 worked out at 3.65 µM; in the assay with LNCaP it was 0.8 µM; in the assay with CWR22R, 1.61 µM; with PC-3, 1.92 µM.

Usually IC50 stands for the concentration at which inhibition is half-maximal.
